Laboratory results as given in patent publication US20240315992A1, “AMINOXY ACID-BASED ANTIBACTERIAL COMPOUNDS AND METHODS THEREOF” (The University of Hong Kong, priority 2023, published 2024).
≈ marks a conversion by molar mass, not a printed value.

Each molecule was assayed on multidrug resistant Staphylococcus aureus Mu3 (assay: MIC by CLSI broth micro-dilution, MRSA Mu3). Conditions: MRSA, CLSI broth micro-dilution, CAMH, read-out: Minimum inhibitory concentration (μM) in MRSA Mu3.
Format: cell-based
Method: Aminoxy acids were synthesized by the standard peptide coupling procedures. Minimum inhibitory concentration was determined using CLSI broth micro-dilution method in 96-wells microtitre plates. Minimum inhibitory concentration is defined as the lowest concentration of the compound that inhibits visible growth of the bacteria. All experiments were performed three times. 24 compounds including aminoxy acid monomers and dipeptides have been identified to show toxicity against multidrug resistant Staphylococcus aureus Mu3 and summarized in Table 1. The minimum inhibitory concentration of compound 8 and compound 35 on other gram-positive bacteria was also evaluated and summarized in Table 2. […] As shown in FIGS. 3A-3B there are no observable hemolysis for compound 8 and compound 35 towards human red blood cell.
Bacteria were streaked from the glycerol stock into BHI agar and were incubated overnight. Single colony was picked for the overnight culture in cation-adjusted Mueller Hinton broth (CAMH), LB or BHI. The overnight culture was sub-cultured and regrew to exponential phase for the experiment.
MIC was determined by CLSI broth micro-dilution method in 96-wells microtitre plates. For compounds dissolved in water, 100 μL of 2× testing concentration was added to the first well of each column, followed by two-fold serial dilution for successive wells with 50 μL medium. For chemical compounds dissolved in DMSO, the compounds were two-fold serial diluted by DMSO in a DMSO-compatible 96-well plate. 1 μL of compound in DMSO was transferred into 96-wells microtitre plate containing 50 μL medium to give 2× testing concentration. An overnight culture of bacteria was grown into exponential phase. The bacteria culture was diluted to 1×10^6 CFU/mL and 50 μL of diluted culture were added into each well. The test plates were kept in a 37° C. incubator overnight. Optical density was recorded by DTX 880 multimode detector (Beckman Coulter, California, US). MIC is defined as the lowest concentration of the compound that inhibits visible growth of bacteria. Biological replicates were performed. CAMH was used for bacteria culture and MIC test except S. pneumoniae, L. monocytogenes, E. faecalis and M. smegmatis for which BHI was used as culture medium

SMILES	MIC [µM]
CC(C)C[C@H](ONC(=O)[C@@H](COCc1ccccc1)ONC(=O)c1cc(C(F)(F)F)cc(C(F)(F)F)c1)C(=O)NCc1ccccc1 [Compound 30]	> 12.5
CC(C)C[C@H](ONC(=O)[C@@H](COCc1ccccc1)ONC(=O)c1cccc2cccnc12)C(=O)Nc1ccc2c(c1)OC(F)(F)O2 [Compound 49]	> 12.5
Cc1cc(C)cc(NC(=O)[C@H](CC(C)C)ONC(=O)[C@@H](COCc2ccccc2)ONC(=O)c2cc(C(F)(F)F)cc(C(F)(F)F)c2)c1 [Compound 31]	3.13 (≈ 2.14 µg/mL)
CC(C)C[C@H](NC(=O)[C@@H](COCc1ccccc1)ONC(=O)c1cc(C(F)(F)F)cc(C(F)(F)F)c1)C(=O)Nc1ccccc1 [Compound 56]	6.25 (≈ 4 µg/mL)
Cc1noc(C)c1C(=O)NO[C@H](COCc1ccccc1)C(=O)NO[C@@H](CC(C)C)C(=O)Nc1ccc2c(c1)OC(F)(F)O2 [Compound 50]	> 12.5
CC(C)C[C@H](ONC(=O)[C@@H](COCc1ccccc1)ONC(=O)c1cc(C(F)(F)F)cc(C(F)(F)F)c1)C(=O)Nc1ccc2c(c1)OCO2 [Compound 34]	6.25 (≈ 4.37 µg/mL)
CC(C)C[C@H](ONC(=O)[C@@H](COCc1ccccc1)ONC(=O)c1cc(C(F)(F)F)cc(C(F)(F)F)c1)C(=O)OC(C)(C)C [Compound 5]	> 12.5
O=C(O)C[C@@H](ONC(=O)[C@@H](COCc1ccccc1)ONC(=O)c1cc(C(F)(F)F)cc(C(F)(F)F)c1)C(=O)Nc1ccccc1 [Compound 18]	> 12.5
CC(C)C[C@H](ONC(=O)[C@@H](COCc1ccccc1)ONC(=O)c1cc(C(F)(F)F)cc(C(F)(F)F)c1)C(=O)Nc1nccs1 [Compound 21]	> 12.5
CC(C)C[C@@H](ONC(=O)[C@@H](COCc1ccccc1)ONC(=O)c1cc(C(F)(F)F)cc(C(F)(F)F)c1)C(=O)Nc1ccccc1 [Compound 9]	3.13 (≈ 2.05 µg/mL)
CC(C)(C)OC(=O)[C@@H](COCc1ccccc1)ONC(=O)c1cc(C(F)(F)F)cc(C(F)(F)F)c1 [Compound 1]	12.5 (≈ 6.34 µg/mL)
O=C(NO[C@H](COCc1ccccc1)C(=O)NO[C@H](COCc1ccccc1)C(=O)Nc1ccccc1)c1cc(C(F)(F)F)cc(C(F)(F)F)c1 [Compound 12]	3.13 (≈ 2.25 µg/mL)
CC(C)C[C@@H](ONC(=O)[C@H](COCc1ccccc1)ONC(=O)c1cc(C(F)(F)F)cc(C(F)(F)F)c1)C(=O)Nc1ccccc1 [Compound 7]	3.13 (≈ 2.05 µg/mL)
O=C(NO[C@H](COCc1ccccc1)C(=O)NO[C@H](CO)C(=O)Nc1ccccc1)c1cc(C(F)(F)F)cc(C(F)(F)F)c1 [Compound 15]	> 12.5

These molecules were tested on Staphylococcus aureus strain USA300-LAC (assay: Non-lethal bacteremia model, bacteria loads in organs). Conditions: 10 mg/kg/day intraperitoneal, 4 days.
Format: in vivo, Balb/c mice
Method: FIG. 9 are the bar graphs showing compound 8 and compound 35 reduce bacteria loads in different organs of the mice infected by Staphylococcus aureus. Grubb's test was performed to test for outliers. Statistical analysis was performed with two-sided paired t test. (*p<0.05).
Staphylococcus aureus strain USA300-LAC were cultured to the early exponential phase of growth, washed twice with sterile phosphate-buffered saline solution (PBS), and resuspended in PBS at 5×10^6 CFU/200 μL for non-lethal bacteremia model. The female Balb/c mice, 6-8 weeks, were infected intravenously (i.v.) through the tail vein with Staphylococcus aureus and randomized into three groups (N=14 for vehicle; N=12 for compound 8 and compound 35 respectively). One hour after infection, mice received intraperitoneal injections of compound 8 or compound 35 (10 mg/kg/day) or an injection of buffer (PBS with 2.5% DMSO and 2% Tween-80) as the control. The compound and injection buffer treatments were performed twice per day at 12-h intervals. The challenged mice were monitored for 4 days, at which point all the remaining mice were sacrificed. The CFU of S. aureus were determined in heart, liver, kidney and lung by plating in series dilution. Grubb's test was performed to test for outliers. Statistical analysis was performed with two-sided paired t test. (*p<0.05).

SMILES	bacteria load in heart	bacteria load in liver	bacteria load in lung
CC(C)C[C@H](ONC(=O)[C@@H](COCc1ccccc1)ONC(=O)c1cc(C(F)(F)F)cc(C(F)(F)F)c1)C(=O)NCc1ccccc1 [Compound 30]	can reduce the bacteria load	can reduce the bacteria load	can reduce the bacteria load
